Laboratory results taken from patent publication US20260138976A1 (Hoffmann-La Roche Inc., priority 2022, published 2026).
Where two headings read alike, the source gives them in different places.

Columns and labels:
[1] = system: primary human T-cells; experiment: IL2 secretion measurements (24 h, CD3-stimulated T-cells, PBS counter screen); format: cell-based; conditions: for Emax IL2 (% activation): CD3 condition, normalised to DMSO (neutral) and 20 μM reference compound A1 = 100%; for EC50: CD3-stimulated primary human T-cells, IL2 secretion, fitted sigmoidal curve, read-out: Tcell IL2 CD3 EC50
Method in brief: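 IL-2 secretion was measured by ProQuantum or ELISA after 24 h culture of expanded human T-cells with compound, on CD3-antibody-coated plates or PBS counter-screen plates. Dosing used 5–6 points from a 20 or 10 μM final top at 3.333-fold steps in 0.2% DMSO. EC50/Emax were scaled between DMSO and 20 μM reference A1.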

[2] = molecular target: T1, DGKζ (hDGKzeta(1-928)-N-His) (Homo sapiens, UniProt Q13574); experiment: In vitro DGK inhibition assay, DGKzeta ADP Glo (in house); format: biochemical; conditions: 2 nM DGKζ, 50 μM ATP, 125 uM DLG in liposomes, 1 hour reaction
T1 construct: hDGKzeta(1-928)-N-His; His (N); made in house; host or cells: Sf21 insect cells (baculovirus)
Method in brief: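 ADP-Glo luminescence measured ADP formed over 1 h by Sf21-expressed full-length human enzymes: DGKα at 4 nM with 25 µM ATP, DGKζ at 2 nM with 50 µM ATP, both on 125 µM DLG in PS/PC liposomes. Dose–response used 11 threefold dilutions at 2% final DMSO.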

T1 sequence (Q13574 whole entry): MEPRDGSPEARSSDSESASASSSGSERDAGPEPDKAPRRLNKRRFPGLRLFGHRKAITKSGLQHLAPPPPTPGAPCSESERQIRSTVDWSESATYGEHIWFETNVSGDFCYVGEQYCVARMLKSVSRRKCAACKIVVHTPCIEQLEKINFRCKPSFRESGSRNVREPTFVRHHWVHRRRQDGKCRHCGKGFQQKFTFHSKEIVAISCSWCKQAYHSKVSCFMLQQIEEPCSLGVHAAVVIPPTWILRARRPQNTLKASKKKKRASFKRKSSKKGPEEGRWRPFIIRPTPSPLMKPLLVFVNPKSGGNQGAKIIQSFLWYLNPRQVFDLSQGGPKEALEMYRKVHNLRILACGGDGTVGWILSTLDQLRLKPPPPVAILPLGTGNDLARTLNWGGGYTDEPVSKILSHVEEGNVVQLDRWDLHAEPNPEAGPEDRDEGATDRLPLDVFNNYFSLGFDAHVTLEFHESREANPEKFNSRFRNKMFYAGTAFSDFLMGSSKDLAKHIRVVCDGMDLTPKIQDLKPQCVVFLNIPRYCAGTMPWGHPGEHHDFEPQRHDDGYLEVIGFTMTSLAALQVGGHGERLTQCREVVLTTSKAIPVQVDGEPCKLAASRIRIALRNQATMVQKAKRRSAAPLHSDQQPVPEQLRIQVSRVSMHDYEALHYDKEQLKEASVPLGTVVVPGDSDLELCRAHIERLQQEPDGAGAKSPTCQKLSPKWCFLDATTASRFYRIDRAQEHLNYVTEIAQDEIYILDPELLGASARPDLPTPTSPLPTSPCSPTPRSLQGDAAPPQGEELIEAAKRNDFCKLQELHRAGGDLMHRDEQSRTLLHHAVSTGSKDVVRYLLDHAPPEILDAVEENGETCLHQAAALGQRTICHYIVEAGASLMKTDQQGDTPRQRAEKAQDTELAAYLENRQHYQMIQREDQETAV

Compound | IC50 [2] [µM] | Emax IL2 (% activation) [1] [% activation] | EC50 ([1]; Homo sapiens, T-cell) [µM] | EC50 [1] [µM]
C[C@@](N)(c1nnc(-c2ccc3c(c2)N(Cc2ccc(-n4nnc(C(F)(F)F)n4)cc2)C(=O)[C@@H](N)CS3(=O)=O)o1)C(F)(F)F [Example 156, (3R)-3-amino-7-[5-[(1R)-1-amino-2,2,2-trifluoro-1-methyl-ethyl]-1,3,4-oxadiazol-2-yl]-1,1-dioxo-5-[[4-[5-(trifluoromethyl)tetrazo 1-2-yl]phenyl]methyl]-2,3-dihydro-1λ^6,5-benzothiazepin-4-one] | 2.96 | 554 | 2.11 | –
COC(=O)N1CC2CC(c3nnc(-c4ccc5c(c4)N(Cc4ccc(-c6noc(C(F)(F)F)n6)cc4)C(=O)[C@@H](N)CS5(=O)=O)o3)(C2)C1 [Example 158, methyl 1-[5-[(3R)-3-amino-1,1,4-trioxo-5-[[4-[5-(trifluoromethyl)-1,2,4-oxadiazol-3-yl]phenyl]methyl]-2,3-dihydro-1λ^6,5-benzothiazepin-7-yl]-1,3,4-oxadiazol-2-yl]-3-azabicyclo[3.1.1]heptane-3-carboxylate] | 1.13 | 345 | – | 1.34
CC(C)(c1nnc(-c2ccc3c(c2)N(Cc2ccc(-c4ccc(OC(F)(F)F)cn4)cc2)C(=O)[C@@H](N)CS3(=O)=O)o1)C(F)(F)F [Example 165, (3R)-3-amino-1,1-dioxo-7-[5-(2,2,2-trifluoro-1,1-dimethyl-ethyl)-1,3,4-oxadiazol-2-yl]-5-[[4-[5-(trifluoromethoxy)-2-pyridyl]phenyl]methyl]-2,3-dihydro-1λ^6,5-benzothiazepin-4-one] | 2.22 | 123 | 1.33 | –
N[C@H]1CS(=O)(=O)c2ccc(-c3nnc(C(F)C(F)(F)F)o3)cc2N(Cc2ccc(-c3noc(C4CC4)n3)cc2)C1=O (stereo partly drawn) [Example 168, (3R)-3-amino-5-[[4-(5-cyclopropyl-1,2,4-oxadiazol-3-yl)phenyl]methyl]-1,1-dioxo-7-[5-(1,2,2,2-tetrafluoroethyl)-1,3,4-oxadiazol-2-yl]-2,3-dihydro-1λ^6,5-benzothiazepin-4-one] | 1.6 | 67 | 4.87 | –
CC(O)(c1nnc(-c2ccc3c(c2)N(Cc2ccc(-c4noc(C5CC5)n4)cc2)C(=O)[C@@H](N)CS3(=O)=O)o1)C(F)(F)F (stereo partly drawn) [Example 170] | 2 | 79 | 8.55 | –
N[C@H]1CS(=O)(=O)c2ccc(-c3nnc(C(N)(C4CC4)C(F)(F)F)o3)cc2N(Cc2ccc(-c3noc(C4CC4)n3)cc2)C1=O (stereo partly drawn) [Example 171] | 0.722 | 122 | 3.78 | –

More lines, main results first:

IC50 [2] [µM] | Compound | Emax IL2 (% activation) [1] [% activation] | EC50 ([1]; Homo sapiens, T-cell) [µM] | EC50 [1] [µM]
3.1 | C[C@@](N)(c1nnc(-c2ccc3c(c2)N(Cc2ccc(-c4ccc(C(F)(F)F)cn4)cc2)C(=O)[C@@H](N)CS3(=O)=O)o1)C(F)(F)F [Example 154, (3R)-3-amino-7-[5-[(1R)-1-amino-2,2,2-trifluoro-1-methyl-ethyl]-1,3,4-oxadiazol-2-yl]-1,1-dioxo-5-[[4-[5-(trifluoromethyl)-2-pyridyl]phenyl]methyl]-2,3-dihydro-1λ^6,5-benzothiazepin-4-one] | 127 | 0.991 | –
0.922 | N[C@H]1CS(=O)(=O)c2ccc(-c3nnc(N4CCC(F)(F)CC4)o3)cc2N(Cc2ccc(-c3ccc(C(F)(F)F)cn3)cc2)C1=O [Example 160] | 55 | 6.43 | –
1.1 | N[C@H]1CS(=O)(=O)c2ccc(-c3nnc(N4CCC(F)(F)CC4)o3)cc2N(Cc2ccc(-n3ccc(C(F)(F)F)n3)cc2)C1=O [Example 162, (3R)-3-amino-7-[5-(4,4-difluoro-1-piperidyl)-1,3,4-oxadiazol-2-yl]-1,1-dioxo-5-[[4-[3-(trifluoromethyl)pyrazol-1-yl]phenyl]methyl]-2,3-dihydro-1λ^6,5-benzothiazepin-4-one] | 185 | 1.41 | –
